Data taken from US20050152835A1, “Technetium-99M glucarate methods of use for monitoring tissues” (priority 2003, published 2005).

Experiments:
[1] = test system: plasmocytoma (localized myeloma); experiment: Scintigraphy of a patient with plasmocytoma of T8; assay type: in vivo, human; settings: for scan finding at diagnosis: patient with lytic lesion of T8, posterior view
Method: A patient complaining of invalidation pain in the spine (mid-thorax) for about two months. Peak of monoclonal IgG-k in serum. Bence-Jones protein in urine. Spine CT. lytic lesion of T8, with soft tissue infiltration. […] Uptake was obvious in the early images, 15 and 30 min p.i., late acquisition, 6 hr p.i., made the tracer uptake much more obvious.

adenosine A1 receptor = molecular target: T1, adenosine A1 receptor (Rattus norvegicus, UniProt P25099); experiment: Adenosine receptor-mediated cardioprotection in rat hearts with ischemia-reperfusion, assessed by 99mTc-glucarate imaging; assay type: in vivo
T1 construct: from tissue; host or cells: living rat, heart (myocardium) in vivo
T1 sequence (P25099 1-326): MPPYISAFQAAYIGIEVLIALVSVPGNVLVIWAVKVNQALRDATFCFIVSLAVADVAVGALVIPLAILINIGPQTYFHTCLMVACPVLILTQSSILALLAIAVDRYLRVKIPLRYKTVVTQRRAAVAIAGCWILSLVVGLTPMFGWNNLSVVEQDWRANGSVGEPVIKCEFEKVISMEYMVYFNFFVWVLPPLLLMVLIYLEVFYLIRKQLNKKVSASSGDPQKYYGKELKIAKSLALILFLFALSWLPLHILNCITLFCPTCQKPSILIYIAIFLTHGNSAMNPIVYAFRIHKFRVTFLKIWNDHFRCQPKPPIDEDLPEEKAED
Method: Experimental groups in this example included: Group-I (IR30, n=11): Animals subjected to a treatment of 30-min regional myocardial ischemia and 30-min reperfusion by ligating and releasing the left coronary artery (LCA). Group-II: (IPC Group, n=6): Rats were preconditioned with a sequence of 6 cycles of 4-min LCA occlusion and 4-min re-flow; 10 min later, the rats underwent a 30-min LCA occlusion followed by 30-min re-flow. Group-III (CCPA, n=6): rat chests were opened for the equivalent time for IPC in Group-II. Ten minutes prior to 30-min LCA occlusion and 30-min reperfusion, CCPA (40 μg/kg) was intravenously injected with 5 cycles of 4-min infusion and 4-min no infusion. Group-IV (SPT, n=5): animals subjected to IPC as the protocol in Group-II, SPT (10 mg/kg) was intravenously infused 2-min before and during subsequent ischemia-reperfusion.
Treatments in this example consisted of control (IR30, n=8): no preconditioning; equivalent open-chest time; IPC (n=6): 4-min LCA occlusion, 4-min reflow, 5 cycles; CCPA (n=6): 4-min IV infusion, 4-min no infusion, 5 cycles; SPT (n=4): IPC first, SPT IV infusion 2 min before and during LCA occlusion and re-flow.

MCF7/D40 cells = experiment: Drug resistance of MCF7/D40 cells relative to MCF7/S; assay type: cell-based, human
breast cancer = settings: cited from earlier work
MCF7/S tumors = experiment: Biodistribution in mice bearing MCF7/S tumors; assay type: in vivo, SCID mice
Method: (§1) Tumor cell lines used. MCF7/S: Cells are parental, drug (doxorubicin) sensitive, breast carcinoma cells. MCF7/D40: Cells were generated in vitro by successive culturing parental MCF7 cells in slowly increasing concentrations of doxorubicin with a total selection time of 31 months. Twenty-eight SCID mice were studied. MCF7/S or MCF7/D40 tumors were grown for 10-14 days after subcutaneous injection of 1×10^6 cells into the right thigh. Groups of mice with the xenografted tumors included: (MCF7/S group: MIBI: n=9; GLA: n=8) and (MCF7/D40 group: MIBI: n=6; GLA: n=5).
(§2) ^99mTc-GLA or ^99mTc-MIBI (5-8 mCi, 185-296 MBq) was injected via a jugular vein catheter. Dynamic images were acquired for 2 hours. Twenty-four projections were obtained, one from each camera. Each scintillation event within the camera's NaI crystal was registered as the digitized outputs from the camera's four photomultiplier tubes. The four photomultiplier outputs were compared to a 20-bit look-up table derived from a calibration procedure that involved moving a collimated source across the camera face.
(§3) Tumors and organs were harvested and counted in a dose calibrator. The percent injected dose per gram (% ID/g) was calculated. Membrane preparations made from MCF7/S and MCF7/D40 tumors were immunoblotted with the mouse monoclonal antibody C219 against Pgp followed by a secondary antibody, which was detected by chemiluminescence. […] No immunodetectable MDR1 Pgp was presented in MCF7/S cells.

MCF7/D40 tumors = experiment: Biodistribution in mice bearing MCF7/D40 tumors; assay type: in vivo, SCID mice
Method: as §1, §2, §3

MCF7/D40 tumor xenograft = experiment: FASTSPECT dynamic imaging and tumor washout kinetics, drug-resistant (Pgp positive) xenograft; assay type: in vivo, SCID mice; settings: for time window after injection in which tumor could be localized/visualized: then activity dropped to background
Method: as §1
(§4) The dynamic imaging system SPECT consisted of 24 small modular gamma cameras. Each modular camera consists of a 10 cm×10 cm NaI(Tl) scintillation crystal, 4 square (5 cm×5 cm) Hamamatsu photomultiplier tubes. The system included a cylindrical aperture with twenty four 1-mm diameter pinholes drilled in the aperture. A point source in the center of the field of view is projected simultaneously to the center of each camera. Total magnification is 3.5 in a 3.0 cm×3.2 cm×3.2 cm field of view. The spatial resolution of the system is about 1.0 mm, with a sensitivity of 13.3 cps/μCi.
as §2
(§5) Tumor image reconstruction was performed using 100 iterations of the maximum-likelihood expectation-maximization (ML-EM) algorithm. Using SlicerDicer software, three-dimensional images were computed to provide images in a 33×49×49 voxels format, and generate tomographic transaxial, coronal and sagittal slices with one-pixel thickness (1.0 mm). Regions of interest (ROI) over the tumors were created and applied to the dynamic images for determining time-activity curves. The percent washout rate relative to the peak uptake of the tumors were calculated.

MCF7/S tumor xenograft = experiment: FASTSPECT dynamic imaging and tumor washout kinetics, drug-sensitive xenograft; assay type: in vivo, SCID mice
Method: as §1, §4, §2, §5

[2] = Table 2, MCF7/S mice, 2 hours after injection
[3] = Table 4 (Example 3), MCF7/S mice
[4] = Table 2, MCF7/D40 mice, 2 hours after injection
[5] = Table 4 (Example 3), MCF7/D40 mice

O.O.O=P([O-])([O-])CP(=O)([O-])[O-].[99Tc+4] [^99mTc-MDP]
scan finding at diagnosis [1]: focally increased uptake corresponding to T8
scan finding after about 1 year of stabilization and external radiotherapy ([1]; posterior view): inhomogeneous tracer distribution, without clear focally increased uptake

OC[C@H]1O[C@@H](n2cnc3c(NC4CCCC4)nc(Cl)nc32)[C@H](O)[C@@H]1O [CCPA, 2-chloro-N6-cyclopentyladenosine]
effect on cardioprotection of ischemic preconditioning (IPC) (adenosine A1 receptor; 40 μg/kg i.v. instead of IPC, before 30-min LCA occlusion and 30-min reperfusion): simulated

COc1cccc2c1C(=O)c1c(O)c3c(c(O)c1C2=O)C[C@@](O)(C(=O)CO)C[C@@H]3O[C@H]1C[C@H](N)[C@H](O)[C@H](C)O1 [doxorubicin]
resistance of MCF7/D40 compared to MCF7/S (MCF7/D40 cells): 40 fold

[C-]#[N+]CC(C)(C)OC.[C-]#[N+]CC(C)(C)OC.[C-]#[N+]CC(C)(C)OC.[C-]#[N+]CC(C)(C)OC.[C-]#[N+]CC(C)(C)OC.[C-]#[N+]CC(C)(C)OC.[Tc] [^99mTc-sestamibi, reference compound]
negative predictive value (breast cancer; in vivo): 83.4%
overall institutional sensitivity for breast cancer detection (breast cancer; in vivo): 75.4%
overall institutional specificity for breast cancer detection (breast cancer; in vivo): 82.7%
positive predictive value (breast cancer; in vivo): 74.5%
sensitivity for tumors under 1 cm in size (breast cancer; tumors under 1 cm): 48.2%
Biodistribution, blood (MCF7/S tumors; [2]): 0.06 ± 0.01 % ID/gm
Biodistribution, heart (MCF7/S tumors; [2]): 10.61 ± 0.89 % ID/gm
Biodistribution, kidneys (MCF7/S tumors; [2]): 21.32 ± 2.03 % ID/gm
Biodistribution, liver (MCF7/S tumors; [2]): 7.02 ± 1.01 % ID/gm
Biodistribution, lung (MCF7/S tumors; [2]): 0.95 ± 0.16 % ID/gm
Biodistribution, muscle (MCF7/S tumors; [2]): 1.37 ± 0.12 % ID/gm
Biodistribution, tumor (MCF7/S tumors; [2]): 0.64 ± 0.07 % ID/gm
Biodistribution, blood (MCF7/S tumors; [3]): 0.06 ± 0.01 % ID/g
Biodistribution, heart (MCF7/S tumors; [3]): 10.61 ± 0.89 % ID/g
Biodistribution, kidneys (MCF7/S tumors; [3]): 21.32 ± 2.03 % ID/g
Biodistribution, liver (MCF7/S tumors; [3]): 7.02 ± 1.01 % ID/g
Biodistribution, lung (MCF7/S tumors; [3]): 0.95 ± 0.16 % ID/g
Biodistribution, muscle (MCF7/S tumors; [3]): 1.37 ± 0.12 % ID/g
Biodistribution, tumor (MCF7/S tumors; [3]): 0.64 ± 0.07 % ID/g
Tumor/Blood ratio (MCF7/S tumors; [3]): 13.97 ± 2.89
Tumor/Muscle ratio (MCF7/S tumors; [3]): 0.48 ± 0.05
scan finding at diagnosis [1]: negative for bone marrow infiltration
Biodistribution, blood (MCF7/D40 tumors; [4]): 0.07 ± 0.01 % ID/gm
Biodistribution, heart (MCF7/D40 tumors; [4]): 9.78 ± 1.65 % ID/gm
Biodistribution, kidneys (MCF7/D40 tumors; [4]): 17.71 ± 3.13 % ID/gm
Biodistribution, liver (MCF7/D40 tumors; [4]): 7.67 ± 1.52 % ID/gm
Biodistribution, lung (MCF7/D40 tumors; [4]): 0.61 ± 0.12 % ID/gm
Biodistribution, muscle (MCF7/D40 tumors; [4]): 1.09 ± 0.32 % ID/gm
Biodistribution, tumor (MCF7/D40 tumors; [4]): 0.27 ± 0.05 % ID/gm
Biodistribution, blood (MCF7/D40 tumors; [5]): 0.07 ± 0.01 % ID/g
Biodistribution, heart (MCF7/D40 tumors; [5]): 9.84 ± 1.39 % ID/g
Biodistribution, kidneys (MCF7/D40 tumors; [5]): 19.63 ± 3.48 % ID/g
Biodistribution, liver (MCF7/D40 tumors; [5]): 8.29 ± 1.43 % ID/g
Biodistribution, lung (MCF7/D40 tumors; [5]): 0.61 ± 0.10 % ID/g
Biodistribution, muscle (MCF7/D40 tumors; [5]): 1.08 ± 0.27 % ID/g
Biodistribution, tumor (MCF7/D40 tumors; [5]): 0.27 ± 0.05 % ID/g
Tumor/Blood ratio (MCF7/D40 tumors; [5]): 3.93 ± 0.41
Tumor/Muscle ratio (MCF7/D40 tumors; [5]): 0.31 ± 0.05
two-hour fractional washout (% peak activity) (MCF7/D40 tumor xenograft): 71.7±1.7%
time window after injection in which tumor could be localized/visualized (MCF7/D40 tumor xenograft): 2 to 4 min
time window after injection in which tumor could be localized/visualized (MCF7/D40 tumor xenograft; listed as 99mTc-MIBI): 2 to 3 min
two-hour fractional washout (% peak activity) (MCF7/S tumor xenograft): 50.2±5.3%
time after injection until which tumor stayed visualized/detectable (MCF7/S tumor xenograft; FASTSPECT, 120 min acquisition): 120 min

Cn1c(=O)c2[nH]c(-c3ccc(S(=O)(=O)O)cc3)nc2n(C)c1=O [SPT, 8-(p-sulfophenyl)-theophylline]
effect on cardioprotection of ischemic preconditioning (IPC) (adenosine A1 receptor; 10 mg/kg i.v. infusion after IPC, before and during ischemia-reperfusion): blocked
